Laboratory results from ChEMBL document CHEMBL3875219, “Hetero-Diels-Alder approach to Bis(indolyl)methanes” (Bioorg Med Chem, 2017).
pIC50: −log10 of the molar value.

What was measured:
[1] = Cytotoxicity against human THP1 cells assessed as reduction in cell viability after 72 hrs by MTT assay; type: functional, cell-based; details: THP-1, 72 h
[2] = tested on: THP-1; assay: Selectivity index, ratio of IC50 for mouse S17 cells to IC50 for human THP1 cells; type: functional
[3] = Cytotoxicity against mouse EL4 cells assessed as reduction in cell viability after 72 hrs by MTT assay; type: functional, cell-based; details: EL4, 72 h
[4] = Cytotoxicity against human U937 cells assessed as cell viability at 100 uM after 72 hrs by MTT assay relative to control; type: functional; details: U-937, 72 h, read-out: Activity
[5] = tested on: EL4; assay: Selectivity index, ratio of IC50 for mouse S17 cells to IC50 for mouse EL4 cells; type: functional
[6] = tested on: U-937; assay: Selectivity index, ratio of IC50 for mouse S17 cells to IC50 for human U937 cells; type: functional
[7] = (§1) Cytotoxicity against mouse S17 cells assessed as reduction in cell viability after 72 hrs by MTT assay; type: toxicity, cell-based; details: mouse, S17 cells
[8] = Cytotoxicity against human U937 cells assessed as reduction in cell viability after 72 hrs by MTT assay; type: functional, cell-based; details: U-937, 72 h
[9] = Cytotoxicity against mouse S17 cells assessed as cell viability at 100 uM after 72 hrs by MTT assay relative to control; type: toxicity; details: read-out: Activity
[10] = species on record: Mus musculus; assay: as §1; type: toxicity, cell-based; details: s17

Row | SMILES | pIC50 [1] | Ratio IC50 [2] | pIC50 [3] | viability at 100 µM [4] | Ratio IC50 [5] | Ratio IC50 [6] | IC50 at 72 h [7] | pIC50 [8] | viability at 72 h, 100 µM [9] | IC50 [10]
1 | C/C(=N/NC(=O)OC(C)(C)C)C(c1cn(Cc2ccccc2)c2ccccc12)c1cn(Cc2ccccc2)c2ccccc12 | 4.41 | <1 | 5.25 | 66.6% | 1.38 | <1 | 7.65 µM |  |  | 
2 | O/N=C(/c1ccc(Br)cc1)C(c1c[nH]c2ccc(Br)cc12)c1c[nH]c2ccc(Br)cc12 | 4.91 |  | 5.12 |  |  |  |  | 4.73 |  | 
3 | C/C(=N/NC(=O)OC(C)(C)C)C(c1c[nH]c2ccc(Br)cc12)c1c[nH]c2ccc(Br)cc12 | 4.44 | 1.14 | 4.65 |  | 1.84 | 1.46 | 41.3 µM | 4.55 |  | 
4 | C/C(=N/NC(=O)OC(C)(C)C)C(c1c[nH]c2ccc(O)cc12)c1c[nH]c2ccc(O)cc12 | 4.54 | 3.5 | 4.81 |  | 6.49 | <1 |  | 3.80 | 48.4% | Non-Toxic
5 | C/C(=N/NS(=O)(=O)c1ccc(C)cc1)C(c1c[nH]c2ccccc12)c1c[nH]c2ccccc12 | 4.63 | 1.06 | 4.72 |  | 1.32 | 1.09 | 25 µM | 4.64 |  | 
6 | C/C(=N/NC(=O)OC(C)(C)C)C(c1cn(C)c2ccccc12)c1cn(C)c2ccccc12 | 4.60 |  | 5.00 |  |  |  |  | 4.85 |  | 
7 | Cc1ccc2[nH]cc(C(/C(=N\O)c3ccc(Br)cc3)c3c[nH]c4ccc(C)cc34)c2c1 | 5.20 | 1.81 | 5.49 |  | 3.56 | 1.17 | 11.5 µM | 5.01 |  | 
8 | C/C(=N/NC(=O)OC(C)(C)C)C(c1c[nH]c2ccccc12)c1c[nH]c2ccccc12 | 4.52 | 1.67 | 4.82 |  | 3.27 | 2 | 50 µM | 4.60 |  | 
9 | COc1ccc2[nH]cc(C(/C(=N\O)c3ccc(Br)cc3)c3c[nH]c4ccc(OC)cc34)c2c1 | 4.65 | <1 | 5.03 |  | 1.91 | <1 | 17.7 µM | 4.74 |  | 
10 | C/C(=N/Nc1ccc([N+](=O)[O-])cc1[N+](=O)[O-])C(c1c[nH]c2ccccc12)c1c[nH]c2ccccc12 | 4.85 | <1 | 5.26 |  | 1.45 | <1 | 7.92 µM | 4.88 |  | 
11 | O/N=C(/c1ccc(Br)cc1)C(c1c[nH]c2ccc(O)cc12)c1c[nH]c2ccc(O)cc12 | 4.81 | 1.41 | 4.81 |  | 1.4 | 1.71 | 21.9 µM | 4.89 |  | 
12 | COc1cc([C@@H]2c3cc4c(cc3[C@@H](O[C@@H]3O[C@@H]5CO[C@@H](C)O[C@H]5[C@H](O)[C@H]3O)[C@H]3COC(=O)[C@H]23)OCO4)cc(OC)c1O [ETOPOSIDE] | 5.74 |  | 5.31 |  |  |  | 10.4 µM | 5.96 |  | 
